The results in this text go back to patent US20260356856A1, “KRAS G12S AND G12C INHIBITORS” (MIRATI THERAPEUTICS, INC., priority 2023, published 2026).

The target of one assay is T1, KRas G12S (Homo sapiens, UniProt P01116, G12S).
T1 construct: Biotinylated KRas (corresponding to amino acids 1-169, produced at Accelegan Inc.); biotin (biotinylated); purchased Accelegan Inc
The assay can be described thus: KRas binding assay, TR-FRET displacement of Cy5 labelled tracer. Conditions: 60-minute incubation at room temperature, 1% DMSO, pH 7.5. The gist of the method: (§1)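 Compound competes with tracer for biotin-labelled KRas (amino acids 1-169) bound to terbium-streptavidin. Incubation runs 60 minutes at room temperature, final DMSO 1%. IC50 values derive from a 4-parameter fit.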

The target of another assay is T2, KRas WT (Homo sapiens, UniProt P01116).
T2 construct: Biotinylated KRas (corresponding to amino acids 1-169, produced at Accelegan Inc.); biotin (biotinylated); purchased Accelegan Inc
T2 sequence (P01116 1-169 isoform P01116-2): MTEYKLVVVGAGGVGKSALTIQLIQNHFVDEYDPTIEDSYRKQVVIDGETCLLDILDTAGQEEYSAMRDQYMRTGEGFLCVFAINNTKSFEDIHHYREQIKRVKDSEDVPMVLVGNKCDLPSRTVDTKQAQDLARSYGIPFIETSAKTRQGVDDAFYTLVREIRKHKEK
The assay is described as above. Conditions: 60-minute incubation at room temperature, 1% DMSO, pH 7.5. The gist of the method: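 Tb-streptavidin captured biotinylated KRas (1-169) in HEPES 50 mM, DTT 1 mM, MgCl2 5 mM, Tween-20 0.005% (pH 7.5), alongside tracer and compound at 1% final DMSO. One hour at RT, then read; IC50 from 4-parameter POC fit.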

A further assay concerns the target T3, KRas G12C (Homo sapiens, UniProt P01116, G12C).
T3 construct: Biotinylated KRas (corresponding to amino acids 1-169, produced at Accelegan Inc.); biotin (biotinylated); purchased Accelegan Inc
The description is as above. Conditions: 60-minute incubation at room temperature, 1% DMSO, pH 7.5. The gist of the method: as §1

The target of assay [1] is T4, KRas-mediated phosphorylation of ERK in H358 cells (Homo sapiens, UniProt P01116, G12C).
T4 construct: pERK HTRF read-out
T4 sequence (P01116 1-188 isoform P01116-2 G12C): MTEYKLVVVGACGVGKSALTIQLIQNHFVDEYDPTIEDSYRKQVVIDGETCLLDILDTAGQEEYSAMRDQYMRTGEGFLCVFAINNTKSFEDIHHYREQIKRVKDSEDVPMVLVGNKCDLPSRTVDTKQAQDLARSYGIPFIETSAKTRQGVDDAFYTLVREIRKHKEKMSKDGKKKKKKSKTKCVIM
Description: Inhibition of KRas-mediated phosphorylation of ERK (HTRF), H358 cells. Format: cell-based. Conditions: HTRF pERK, 3 h incubation.

Assay [2] addresses T5, KRas-mediated phosphorylation of ERK in MKN1 cells (Homo sapiens, UniProt P01116).
T5 construct: pERK HTRF read-out
The assay can be described thus: Inhibition of KRas-mediated phosphorylation of ERK (HTRF), MKN1 cells. Format: cell-based. Conditions: MKN1 cells (KRas WT); HTRF pERK; 3 h incubation. On the procedure: Inhibition of KRas Phosphorylation of ERK (HTRF) by Exemplary Compounds of Formula (Ia) or (Ib)
Cisbio HTRF Advanced pERK Assay Catalog #64AERPEH • Cells: MKN1, PSN1 • Procedure: • 1. Day 1: Seed 6,000 cells/well −25 μl/well in 384-well white solid bottom plate; RPM1_10% FBS. Incubate overnight at 37 °C/5% CO2. • 2.

The target in assay [3] is T6, KRas-mediated phosphorylation of ERK in A549 cells (Homo sapiens, UniProt P01116, G12S).
T6 construct: pERK HTRF read-out
T6 sequence (P01116 1-188 isoform P01116-2 G12S): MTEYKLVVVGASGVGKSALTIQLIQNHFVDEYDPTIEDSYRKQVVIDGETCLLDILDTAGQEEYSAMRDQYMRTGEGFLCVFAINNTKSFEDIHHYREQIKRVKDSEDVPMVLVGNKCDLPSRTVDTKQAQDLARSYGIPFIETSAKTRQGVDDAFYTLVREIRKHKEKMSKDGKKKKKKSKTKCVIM
The assay can be described thus: Inhibition of KRas-mediated phosphorylation of ERK (HTRF), A549 cells. Format: cell-based. To be noted: HTRF pERK, 3 h incubation.

Structures are written as SMILES.

T3 sequence (P01116 1-169 isoform P01116-2 G12C): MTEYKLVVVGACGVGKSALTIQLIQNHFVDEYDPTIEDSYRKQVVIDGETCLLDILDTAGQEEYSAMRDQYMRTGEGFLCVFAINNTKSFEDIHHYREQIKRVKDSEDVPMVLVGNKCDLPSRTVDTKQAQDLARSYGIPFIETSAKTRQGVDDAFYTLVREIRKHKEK
T5 sequence (P01116 1-188 isoform P01116-2): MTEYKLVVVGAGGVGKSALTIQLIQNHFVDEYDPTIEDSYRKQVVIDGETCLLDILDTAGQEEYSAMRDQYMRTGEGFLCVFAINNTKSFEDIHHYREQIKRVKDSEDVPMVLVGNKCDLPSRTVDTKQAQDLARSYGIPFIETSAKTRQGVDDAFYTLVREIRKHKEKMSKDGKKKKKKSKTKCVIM
T1 sequence (P01116 1-169 isoform P01116-2 G12S): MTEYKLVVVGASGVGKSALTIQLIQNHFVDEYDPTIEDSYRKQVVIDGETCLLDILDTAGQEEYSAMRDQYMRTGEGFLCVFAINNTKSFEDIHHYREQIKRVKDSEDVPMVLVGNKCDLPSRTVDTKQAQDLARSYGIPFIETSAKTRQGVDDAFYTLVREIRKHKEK

Regarding `CC(=O)N(C)C(=O)C1CCN(c2nc(OC[C@@]34CCCN3C[C@H](F)C4)nc3c(F)c(-c4ccc(F)c5sc(N)c(C#N)c45)c(Cl)cc23)CC1` [Example 253, N-acetyl-1-(7-(2-amino-3-cyano-7-fluorobenzo[b]thiophen-4-yl)-6-chloro-8-fluoro-2-(((2R,7aS)-2-fluorotetrahydro-1H-pyrrolizin-7a(5H)-yl)methoxy)quinazolin-4-yl)-N-methylpiperidine-4-carboxamide], the IC50 at KRas G12S was determined as 8 nM; at KRas WT it was 10 nM; at KRas G12C, 8 nM; in assay [1], 61 nM; in assay [2] it was 37 nM; in assay [3], 14 nM.

Regarding `CN(CCNC(=O)n1cncn1)c1nc(OC[C@@]23CCCN2C[C@H](F)C3)nc2c(F)c(-c3ccc(F)c4sc(N)c(C#N)c34)c(Cl)cc12` [Example 228, N-(2-((7-(2-amino-3-cyano-7-fluorobenzo[b]thiophen-4-yl)-6-chloro-8-fluoro-2-(((2R,7aS)-2-fluorotetrahydro-1H-pyrrolizin-7a(5H)-yl)methoxy)quinazolin-4-yl)(methyl)amino)ethyl)-1H-1,2,4-triazole-1-carboxamide], the IC50 on KRas G12S came out at 8 nM; at KRas WT, 13 nM; on KRas G12C, 3 nM; in assay [1], 9 nM; in assay [2], 252 nM; in assay [3], 448 nM.

On to `CN(CCCC(=O)Oc1ccc(F)cc1)c1nc(OC[C@@]23CCCN2C[C@H](F)C3)nc2c(F)c(-c3ccc(F)c4sc(N)c(C#N)c34)c(Cl)cc12` [Example 270, 4-fluorophenyl 4-((7-(2-amino-3-cyano-7-fluorobenzo[b]thiophen-4-yl)-6-chloro-8-fluoro-2-(((2R,7aS)-2-fluorotetrahydro-1H-pyrrolizin-7a(5H)-yl)methoxy)quinazolin-4-yl)(methyl)amino)butanoate], for which the IC50 at KRas G12S is 22 nM; on KRas WT, 74 nM; on KRas G12C, 4 nM; in assay [1], 77 nM; in assay [2], 340 nM; in assay [3], 462 nM.

`COc1ccn(C(=O)C2CCCN(c3nc(OC[C@@]45CCCN4C[C@H](F)C5)nc4c(F)c(-c5ccc(F)c6sc(N)c(C#N)c56)c(Cl)cc34)CC2)n1` (stereo partly drawn) [Example 140, 2-amino-4-(6-chloro-8-fluoro-2-(((2R,7aS)-2-fluorotetrahydro-1H-pyrrolizin-7a(5H)-yl)methoxy)-4-(4-(3-methoxy-1H-pyrazole-1-carbonyl)azepan-1-yl)quinazolin-7-yl)-7-fluorobenzo[b]thiophene-3-carbonitrile]: the IC50 at KRas G12S stood at 3 nM; on KRas WT it was 15 nM; on KRas G12C it was 11 nM; in assay [1] it was 22 nM; in assay [2] it was 178 nM; in assay [3] it was 8 nM.

In the case of `N#Cc1c(N)sc2c(F)ccc(-c3c(Cl)cc4c(N5CCC(C(=O)N6CCOCC6)CC5)nc(OC[C@@]56CCCN5C[C@H](F)C6)nc4c3F)c12` [Example 241, 2-amino-4-(6-chloro-8-fluoro-2-(((2R,7aS)-2-fluorotetrahydro-1H-pyrrolizin-7a(5H)-yl)methoxy)-4-(4-(morpholine-4-carbonyl)piperidin-1-yl)quinazolin-7-yl)-7-fluorobenzo [b]thiophene-3-carbonitrile], the IC50 was found to be 11 nM at KRas G12S; 5 nM on KRas WT; 11 nM on KRas G12C; 163 nM in assay [1]; 27 nM in assay [2]; 367 nM in assay [3].

With `Cc1ccn(C(=O)C2CCCN(c3nc(OC[C@@]45CCCN4C[C@H](F)C5)nc4c(F)c(-c5nc(N)ccc5C)c(Cl)cc34)CC2)n1` (stereo partly drawn) [Example 222, (1-(7-(6-amino-3-methylpyridin-2-yl)-6-chloro-8-fluoro-2-(((2R,7aS)-2-fluorotetrahydro-1H-pyrrolizin-7a(5H)-yl)methoxy)quinazolin-4-yl)azepan-4-yl)(3-methyl-1H-pyrazol-1-yl)methanone], the IC50 is 3410 nM at KRas G12S; 29600 nM at KRas WT; 18300 nM at KRas G12C; more than 10000 nM in assay [1]; 8260 nM in assay [2]; 1970 nM in assay [3].

For `CCc1c(F)ccc2cc(O)cc(-c3ncc4c(N5CCC(C(=O)N(C)C(C)=O)C5)nc(OC[C@@]56CCCN5C[C@H](F)C6)nc4c3F)c12` (stereo partly drawn) [Example 274, N-acetyl-1-(7-(8-ethyl-7-fluoro-3-hydroxynaphthalen-1-yl)-8-fluoro-2-(((2R,7aS)-2-fluorotetrahydro-1H-pyrrolizin-7a(5H)-yl)methoxy)pyrido[4,3-d]pyrimidin-4-yl)-N-methylpyrrolidine-3-carboxamide], the IC50 at KRas G12S is 89 nM; on KRas WT it was 51 nM; on KRas G12C, 65 nM; in assay [1], 662 nM; in assay [2], 287 nM; in assay [3] it was 326 nM.

On to `CCc1c(F)ccc2cc(O)cc(-c3ncc4c(N5CCN(C(=O)n6ccc(C)n6)C(C)C5)nc(OC[C@@]56CCCN5C[C@H](F)C6)nc4c3F)c12` (stereo partly drawn) [Example 82, (4-(7-(8-ethyl-7-fluoro-3-hydroxynaphthalen-1-yl)-8-fluoro-2-(((2R,7aS)-2-fluorotetrahydro-1H-pyrrolizin-7a(5H)-yl)methoxy)pyrido[4,3-d]pyrimidin-4-yl)-2-methylpiperazin-1-yl)(3-methyl-1H-pyrazol-1-yl)methanone], for which the IC50 turned out to be 28 nM on KRas G12S; 23 nM on KRas WT; 34 nM at KRas G12C; 499 nM in assay [1]; 179 nM in assay [2]; 3410 nM in assay [3].

With `Cc1ccn(C(=O)CCCCN(C)c2nc(OC[C@@]34CCCN3C[C@H](F)C4)nc3c(F)c(-c4ccc(F)c5sc(N)c(C#N)c45)c(Cl)cc23)n1` [Example 199, 2-amino-4-(6-chloro-8-fluoro-2-(((2R,7aS)-2-fluorotetrahydro-1H-pyrrolizin-7a(5H)-yl)methoxy)-4-(methyl(5-(3-methyl-1H-pyrazol-1-yl)-5-oxopentyl)amino)quinazolin-7-yl)-7-fluorobenzo[b]thiophene-3-carbonitrile], the IC50 is 27 nM on KRas G12S; 26 nM at KRas WT; 17 nM on KRas G12C; 432 nM in assay [1]; 236 nM in assay [2]; 4320 nM in assay [3].

Regarding `Cc1ccn(C(=O)CCNc2cc(-c3noc4c3CCC[C@@]43CCCc4sc(N)c(C#N)c43)nc(N3CCNC[C@@H]3C)n2)n1` [Example 321, (S)-2-amino-3′-(6-((3-(3-methyl-1H-pyrazol-1-yl)-3-oxopropyl)amino)-2-((S)-2-methylpiperazin-1-yl)pyrimidin-4-yl)-5′,6,6′,7-tetrahydro-4′H,5H-spiro[benzo[b]thiophene-4,7′-benzo[d]isoxazole]-3-carbonitrile], the IC50 on KRas G12S came out at 21 nM; at KRas WT, 28 nM; at KRas G12C, 14 nM; in assay [1], 1060 nM; in assay [2], 861 nM; in assay [3] it was 192 nM.
